# Measured values: patent US7691874B2, “Neuroprotective properties of dextrorotatory morphinans” (priority 2004, dated 2010)
# Marks after values point to notes of the source that are not given here.
# Assays:
# [1] = test system: MA-treated mice; test: Methamphetamine (MA)-induced hyperthermia; assay type: in vivo; conditions: 24 mg/kg; MA 7.5 mg/kg i.p. x 4 at 2-h intervals
# Protocol: Rectal temperature was recorded at 40 min after each MA treatment. […] Mice were sacrificed at 3 days after final MA injection.
# FIGS. 10A-10B show effect of morphinans on the methamphetamine (MA)-induced hyperthermia. Mice received i.p. injections of MA (four injections of 7.5 mg/kg each) at 2-h intervals under the ambient temperature of 22.0±0.5° C. Temperatures were recorded at 40 min after each MA treatment (Arrow=MA injection).
# [2] = biological target: CB1 receptor (Rattus norvegicus, UniProt P20272); assay type: biochemical
# [3] = test system: MPTP-treated mice; test: MPTP-induced loss of nigral TH-IR with CB1 agonist/antagonist and HM; assay type: in vivo; conditions: given alone: AM-251 0.3, ACEA 2, HM 20 mg/kg i.p.; MPTP 20 mg/kg i.p./day x 7
# Protocol: CB1 agonist or antagonist was administered 45 min before every MPTP, while HM was injected 30 min before every MPTP (20 mg/kg, i.p./day×7). Compounds were administered for 7 days post-final MPTP.
# [4] = test system: LPS-treated mice; test: LPS-induced mortality with CB1 agonist/antagonist and HM; assay type: in vivo; conditions: given alone: HM 20, ACEA 2, AM-251 0.3 mg/kg; 2 weeks after bilateral intrastriatal LPS
# [5] = test system: LPS-treated mice; test: LPS-induced loss of nigral TH-IR with CB1 agonist/antagonist and HM; assay type: in vivo; conditions: given alone
# Protocol: Mortality was observed by 2 weeks after bilateral LPS intrastriatal injection (one side: 2 μg×2).
# [6] = test system: MPTP-treated mice; test: MPTP model, HM versus L-dopa/carbidopa: nigral TH-IR; assay type: in vivo; conditions: HM 24 mg/kg i.p., L-dopa 200 mg/kg p.o., carbidopa 20 mg/kg p.o.
# Protocol: FIGS. 21A-21G show effects of carbidopa, L-dopa, carbidopa+L-dopa and HM on the nigral tyrosine hydroxylase-like immunoreactivity (TH-IR) of the mice treated with MPTP. […] Magnification=40×.
# A prescription drug for treating Parkinsonian patients is L-dopa or carbidopa plus L-dopa. Thus, the neuroprotective effects of HM was compared with L-dopa, carbidopa, or carbidopa plus L-dopa. […] Locomotor activity was examined for 60 min after final treatment of MPTP. Mice were sacrificed at 24 h after final MPTP administration. HM (24 mg/kg, i.p.), L-dopa (200 mg/kg, p.o.) with or without carbidopa (20 mg/kg, p.o.) was administered for 2 weeks before first MPTP challenge.
# [7] = test system: LPS-treated mice; test: LPS model, HM versus L-dopa/carbidopa: mortality; assay type: in vivo; conditions: intrastriatal LPS 2 μg x 4/head; 2 weeks
# Protocol: Mortality was observed by 2 weeks after LPS injection. *P<0.01 vs. Saline+LPS (x^2-test).
# The neuroprotective effect of HM was compared with L-dopa, carbidopa, or carbidopa plus L-dopa in response to dopaminergic damage induced by LPS. Intrastriatal injection of LPS (2 μg×4/head) produced high mortality (ten animals died out of twelve animals in the 2 weeks after LPS administration).
# [8] = test system: LPS-treated mice; test: LPS model, HM versus L-dopa/carbidopa: locomotor activity; assay type: in vivo; conditions: 3 weeks after LPS
# Protocol: Locomotor activity was examined for 60 min at 3 weeks after LPS treatment. LPS-induced significant reduction (P<0.01 vs. saline treatment) in locomotor activity was attenuated by L-dopa (P<0.05), carbidopa+L-dopa (P<0.05) or HM (P<0.01) (FIGS. 24 and 25).
# [9] = test system: LPS-treated mice; test: LPS model, HM versus L-dopa/carbidopa: nigral TH-IR; conditions: mouse, in vivo
# Description: FIG. 27 show effects of carbidopa, L-dopa, carbidopa+L-dopa and HM on the nigral tyrosine hydroxylase-like immunoreactivity (TH-IR) of the mice treated with LPS.
# [10] = test system: LPS-treated mice; test: LPS model, HM versus L-dopa/carbidopa: microglia F4/80-like immunoreactivity; assay type: in vivo; conditions: substantia nigra
# [11] = test system: MA-treated mice; test: MA model, HM versus L-dopa/carbidopa: hyperthermia; assay type: in vivo; conditions: MA 7.5 mg/kg i.p. x 4
# Protocol: FIGS. 31A-31B show effect of drugs on the MA-induced hyperthermia. Mice received MA injections as 2 hrs' time interval under the ambient temperature of 22.0±0.5° C.
# Experimental paradigm for MA with or without compounds is in FIG. 30. Treatment with MA (7.5 mg/kg, i.p.×four times as two hour time interval) produces hyperthermia (P<0.01).
# [12] = test system: MA-treated mice; test: MA model, HM versus L-dopa/carbidopa: nigral TH-IR; conditions: mouse, in vivo
# Description: FIGS. 33A-33G show effects of carbidopa, L-dopa, carbidopa plus L-dopa, and HM on the nigral tyrosine hydroxylase-like immunoreactivity (TH-IR) of the mice treated with MA. […] Magnification=40×.
# [13] = biological target: σ1 receptors (Homo sapiens, UniProt Q99720); conditions: cited from earlier work
# [14] = test system: LPS-treated mice; test: Hypokinesia induced by intrastriatal LPS; conditions: 12 or 24 mg/kg, twice before bilateral intrastriatal LPS
# Protocol: Male mice were anesthetized with chloral hydrate (200 mg/kg, i.p.) and positioned in a small-animal stereotaxic apparatus. […] LPS (2 μg in a volume of 2 μl of PBS) was injected into both sides of the striatum over a period of 2 min, and the injection needle was kept in place for 2 min after the injection. Control animals received striatal injection with PBS.
# Ten min after the last treatment with each drug, locomotor activity was measured for 30 min. After measuring the locomotor activity (i.e. 40 min after the last drug injection), the ‘absolute turn angular’ was analyzed in a 3-min monitoring period using an automated video-tracking system (Noldus Information Technology, Wagenin, The Netherlands) to examine locomotor patterns. […] Eight test boxes (40×40×30 cm high) were operated simultaneously by an IBM computer. Animals were studied individually during locomotion in each test box, where they were adapted for 10 min before starting the experiment. […] The distance traveled in cm by the animals in horizontal locomotor activity was analyzed (13, 25, 27). Data were collected and analyzed between 0900 and 1700 hr.
# [15] = test system: MPTP-treated mice; test: Striatal dopamine and metabolites (HPLC-EC) in MPTP-treated mice; conditions: for Concentration DA in the striatum: mean ± S.E.M., 8 animals
# [16] = test system: cocaine-treated mice; test: Cocaine-induced Fos-related antigen-immunoreactivity (FRA-IR) in the striatum; conditions: cocaine 5 mg/kg; morphinan 20 mg/kg i.p.
# [17] = biological target: cannabinoid CB1 site (Rattus norvegicus, UniProt P20272)
# Sequence of cannabinoid CB1 site (P20272 whole entry): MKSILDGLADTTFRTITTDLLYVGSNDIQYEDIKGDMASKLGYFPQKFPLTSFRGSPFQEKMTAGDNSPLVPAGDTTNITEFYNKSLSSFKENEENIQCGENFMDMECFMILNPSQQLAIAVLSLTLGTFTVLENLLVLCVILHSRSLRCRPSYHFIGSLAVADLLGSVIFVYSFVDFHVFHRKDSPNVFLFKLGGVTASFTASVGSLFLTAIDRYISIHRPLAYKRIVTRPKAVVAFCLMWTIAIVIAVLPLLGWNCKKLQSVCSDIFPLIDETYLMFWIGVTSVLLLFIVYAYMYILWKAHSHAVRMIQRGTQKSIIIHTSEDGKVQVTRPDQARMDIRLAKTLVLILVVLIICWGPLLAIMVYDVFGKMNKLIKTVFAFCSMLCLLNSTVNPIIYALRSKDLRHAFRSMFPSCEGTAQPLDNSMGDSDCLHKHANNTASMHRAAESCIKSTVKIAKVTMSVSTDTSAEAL
# Sequence of CB1 receptor (P20272 whole entry): as above
# Sequence of σ1 receptors (Q99720 whole entry): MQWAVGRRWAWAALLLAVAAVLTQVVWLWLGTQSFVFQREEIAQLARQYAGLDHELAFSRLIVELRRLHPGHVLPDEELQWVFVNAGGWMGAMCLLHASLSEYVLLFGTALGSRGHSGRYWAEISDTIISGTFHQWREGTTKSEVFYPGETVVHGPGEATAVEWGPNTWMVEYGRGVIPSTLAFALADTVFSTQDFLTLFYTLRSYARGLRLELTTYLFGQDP
structure (smiles),measurement,setting,value
"Oc1ccc2c(c1)[C@@]13CCCC[C@H]1[C@@H](C2)NCC3 [HM, 3-hydroxymorphinan]",effect on MA-induced hyperthermia (rectal temperature),[1],most efficacious
same,effect on CP 55940-induced stimulation in GTP γS binding,[2],decreased
same,functional property at CB1 receptor,[2],"partial agonist of CB1 receptor, as well as a CB1 antagonist"
same,inhibition of GTP γS binding,[2]; 100 nM,about 60%
same,effect on MPTP-induced reduction of nigral TH-IR,[3],Attenuates MPTP-induced Reduced Tyrosine Hydroxylase-like Immunoreactivity
same,effect on LPS-induced mortality,[4],No animal died
same,effect on LPS-induced reduction in nigral TH-IR,[5],Attenuates LPS-Induced Reduced Tyrosine Hydroxylase-like Immunoreactivity
same,effect on MPTP-induced nigral loss in TH-IR,[6],significantly attenuated
same,effect on mortality induced by LPS,[7],most pronounced
same,effect on LPS-induced reduction in locomotor activity,[8],attenuated
same,effect on LPS-induced loss in nigral TH-IR,[9],most effective in attenuating LPS-induced reduction in TH-IR
same,effect on LPS-induced increase in F4/80-like immunoreactivity (microglia),[10],most effective in attenuating LPS-induced increase in F4/80-like immunoreactivity
same,effect on MA-induced hyperthermia,[11],significantly attenenuated
same,effect on MA-induced nigral loss in TH-IR,[12],more pronounced than that of carbidopa+L-dopa
same,affinity for σ1 receptors,[13],high affinity ligands
same,effect on LPS-induced decrease in locomotor activity,[14],significantly prevented LPS-induced decrease in locomotor activity
same,"effect on MPTP-induced reductions in striatal DA, DOPAC and HVA",[15]; 24 mg/kg pretreatment,significantly protected
same,Concentration DOPAC in the striatum,[15]; morphinan 12 (mg/kg) + MPTP,68 ± 7 ng/100 mg wet tissue
same,Concentration HVA in the striatum,[15]; morphinan 12 (mg/kg) + MPTP,84 ± 8 ng/100 mg wet tissue
same,Concentration DA in the striatum,[15]; morphinan 12 (mg/kg) + MPTP,582 ± 74 ng/100 mg wet tissue
same,Concentration DOPAC in the striatum,[15]; morphinan 24 (mg/kg) + MPTP,98 ± 9^c ng/100 mg wet tissue
same,Concentration HVA in the striatum,[15]; morphinan 24 (mg/kg) + MPTP,104 ± 10^c ng/100 mg wet tissue
same,Concentration DA in the striatum,[15]; morphinan 24 (mg/kg) + MPTP,896 ± 79^c ng/100 mg wet tissue
same,effect on cocaine-induced FRA-IR in the striatum,[16],apparently attenuated
same,Ki,[17],11.5 nM
